14 molecules from PubChem BioAssay AID180 (DTP/NCI, 2004) can be followed below.

“And” between values parts separate entries of the source, which are not always exact repeats. Equal entries are not always repeated.

The assay has as its system BDF1 mice, Adenocarcinoma 755 s.c., tumor weight T/C. Kind of assay: NCI In Vivo Anticancer Drug Screen. Data for tumor model Adenocarcinoma 755 (subcutaneous) in B6D2F1 (BDF1) mice. The settings on record: endpoint: mean tumor weight, higher = larger tumour. In a few lines: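 Compound activity was tested in mice carrying transplanted tumors. Survival or tumor size was measured, and each value is the treated-group measurement divided by that of the vehicle-treated control group (T/C).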

The mark [1] stands for this setting: dose: 62.0 mg/kg/injection, schedule: Q01DX011 (ip), vehicle: saline.
Setting [2] is: dose: 125.0 mg/kg/injection, schedule: Q01DX011 (ip), vehicle: saline.
Setting [3] is: dose: 15.0 mg/kg/injection, schedule: Q01DX011 (ip), vehicle: saline.
Where [4] appears, read: dose: 31.0 mg/kg/injection, schedule: Q01DX011 (ip), vehicle: saline.
Setting [5] is: dose: 250.0 mg/kg/injection, schedule: Q01DX011 (ip), vehicle: saline.
The mark [6] stands for this setting: dose: 25.0 mg/kg/injection, schedule: Q01DX011 (ip), vehicle: saline.

`Cc1cn(C2OC(CO)C(O)C2O)c(=O)[nH]c1=O` (configuration not stated): the T/C is, setting by setting: under setting [1], 86 % of control; under setting [2], 78 % of control; (dose: 500.0 mg/kg/injection, schedule: Q01DX011 (ip), vehicle: saline) 121 % of control.

For the molecule `CS(=O)(=O)OCCC(=O)NCCCCCCNC(=O)CCOS(C)(=O)=O`, the T/C is 117 % of control (dose: 57.0 mg/kg/injection, schedule: Q01DX011 (ip), vehicle: methylcellulose (MC)); 110 % of control (dose: 113.0 mg/kg/injection, schedule: Q01DX011 (ip), vehicle: methylcellulose (MC)); 45 % of control (dose: 225.0 mg/kg/injection, schedule: Q01DX011 (ip), vehicle: methylcellulose (MC)).

With `CN(C)S(=O)(=O)c1nc2nc[nH]c(=O)c2[nH]1`, the T/C is, setting by setting: (dose: 30.0 mg/kg/injection, schedule: Q01DX011 (ip), vehicle: carboxymethylcellulose (CMC)) 108 % of control; (dose: 60.0 mg/kg/injection, schedule: Q01DX011 (ip), vehicle: carboxymethylcellulose (CMC)) 158 % of control; (dose: 120.0 mg/kg/injection, schedule: Q01DX011 (ip), vehicle: carboxymethylcellulose (CMC)) 101 % of control; (dose: 240.0 mg/kg/injection, schedule: Q01DX011 (ip), vehicle: carboxymethylcellulose (CMC)) 91 % of control.

Take `Cn1c(N)nc2nc[nH]c2c1=O`: the T/C by setting is: (dose: 9.3 mg/kg/injection, schedule: Q01DX011 (ip), vehicle: methylcellulose (MC)) 79 % of control; (dose: 18.7 mg/kg/injection, schedule: Q01DX011 (ip), vehicle: methylcellulose (MC)) 68 % of control; (dose: 37.5 mg/kg/injection, schedule: Q01DX011 (ip), vehicle: methylcellulose (MC)) 29 % of control.

In the case of `N#[N+]c1cnc([O-])[nH]c1=O`, the T/C was 111 % of control (dose: 1.25 mg/kg/injection, schedule: Q01DX011 (ip), vehicle: carboxymethylcellulose (CMC)); 80 % of control (dose: 1.41 mg/kg/injection, schedule: Q01DX011 (ip), vehicle: carboxymethylcellulose (CMC)); 116 % of control (dose: 1.47 mg/kg/injection, schedule: Q01DX011 (ip), vehicle: carboxymethylcellulose (CMC)); 53 % of control (dose: 2.5 mg/kg/injection, schedule: Q01DX011 (ip), vehicle: carboxymethylcellulose (CMC)); 108 % of control (dose: 2.83 mg/kg/injection, schedule: Q01DX011 (ip), vehicle: carboxymethylcellulose (CMC)); 98 % of control (dose: 2.95 mg/kg/injection, schedule: Q01DX011 (ip), vehicle: carboxymethylcellulose (CMC)). For the same molecule, the T/C was 39 % of control (dose: 5.0 mg/kg/injection, schedule: Q01DX011 (ip), vehicle: carboxymethylcellulose (CMC)); 94 % of control (dose: 5.65 mg/kg/injection, schedule: Q01DX011 (ip), vehicle: carboxymethylcellulose (CMC)); 76 % of control (dose: 5.9 mg/kg/injection, schedule: Q01DX011 (ip), vehicle: carboxymethylcellulose (CMC)); 49 % of control (dose: 11.3 mg/kg/injection, schedule: Q01DX011 (ip), vehicle: carboxymethylcellulose (CMC)); 86 % of control (dose: 1170.0 micrograms/kg/injection, schedule: Q01DX011 (ip), vehicle: carboxymethylcellulose (CMC)); 78 % of control (dose: 2925.0 micrograms/kg/injection, schedule: Q01DX011 (ip), vehicle: carboxymethylcellulose (CMC)).

`NC(N)=NC(CC(=O)O)c1ccccc1` (configuration not stated): the T/C is 87 % of control under setting [3]; 99 % of control under setting [4]; 87 % of control under setting [1]; 107 % of control under setting [2]; 91 % of control under setting [5].

On to `S=c1[nH]c(=S)c2[nH]cnc2[nH]1`, for which the T/C is, setting by setting: (dose: 25.0 mg/kg/injection, schedule: Q01DX011 (ip), vehicle: carboxymethylcellulose (CMC)) 84 % of control; (dose: 50.0 mg/kg/injection, schedule: Q01DX011 (ip), vehicle: carboxymethylcellulose (CMC)) 58 % of control; (dose: 100.0 mg/kg/injection, schedule: Q01DX011 (ip), vehicle: carboxymethylcellulose (CMC)) 31 % of control.

Regarding `OC(CBr)C(O)C(O)C(O)CBr` (configuration not stated), the T/C reads like this: under setting [6], 48 % of control; (dose: 50.0 mg/kg/injection, schedule: Q01DX011 (ip), vehicle: saline) 64 % of control and 71 % of control; (dose: 100.0 mg/kg/injection, schedule: Q01DX011 (ip), vehicle: saline) 66 % of control and 72 % of control; (dose: 200.0 mg/kg/injection, schedule: Q01DX011 (ip), vehicle: saline) 38 % of control and 50 % of control; (dose: 400.0 mg/kg/injection, schedule: Q01DX011 (ip), vehicle: saline) 29 % of control.

As for `CCCCCCCCCCCC[N+](C)(C)c1ncnc2nc[nH]c12`, the T/C was 103 % of control (dose: 12.0 mg/kg/injection, schedule: Q01DX011 (ip), vehicle: carboxymethylcellulose (CMC)); 55 % of control (dose: 24.0 mg/kg/injection, schedule: Q01DX011 (ip), vehicle: carboxymethylcellulose (CMC)); 13 % of control (dose: 48.0 mg/kg/injection, schedule: Q01DX011 (ip), vehicle: carboxymethylcellulose (CMC)).

Take `N#[N+]c1nc2ncnc(N)c2[nH]1`: the T/C reads like this: (dose: 12.5 mg/kg/injection, schedule: Q01DX011 (ip), vehicle: saline) 101 % of control; under setting [6], 70 % of control.

`CS(=O)(=O)OCCCCCOS(C)(=O)=O`: the T/C is, setting by setting: (dose: 4.5 mg/kg/injection, schedule: Q01DX011 (ip), vehicle: carboxymethylcellulose (CMC)) 110 % of control; (dose: 9.0 mg/kg/injection, schedule: Q01DX011 (ip), vehicle: carboxymethylcellulose (CMC)) 86 % of control; (dose: 18.0 mg/kg/injection, schedule: Q01DX011 (ip), vehicle: carboxymethylcellulose (CMC)) 67 % of control; (dose: 25.0 mg/kg/injection, schedule: Q01DX011 (ip), vehicle: methylcellulose (MC)) 11 % of control; (dose: 37.0 mg/kg/injection, schedule: Q01DX011 (ip), vehicle: carboxymethylcellulose (CMC)) 3 % of control.

For `C[C@]12CCC(=O)C=C1CC[C@@H]1[C@@H]2[C@@H](O)C[C@@]2(C)[C@H]1CC[C@]2(O)C(=O)CO`, the T/C is, setting by setting: (dose: 2.5 mg/kg/injection, schedule: Q01DX011 (sc), vehicle: steriod suspending solution) 96 % of control; (dose: 4.0 mg/kg/injection, schedule: Q01DX011 (sc), vehicle: steriod suspending solution) 49 % of control; (dose: 5.0 mg/kg/injection, schedule: Q01DX011 (sc), vehicle: steriod suspending solution) 110 % of control; (dose: 8.7 mg/kg/injection, schedule: Q01DX011 (sc), vehicle: steriod suspending solution) 49 % of control; (dose: 10.0 mg/kg/injection, schedule: Q01DX011 (sc), vehicle: steriod suspending solution) 56 % of control; (dose: 17.5 mg/kg/injection, schedule: Q01DX011 (sc), vehicle: steriod suspending solution) 32 % of control. In addition, the T/C reads like this: (dose: 20.0 mg/kg/injection, schedule: Q01DX011 (sc), vehicle: steriod suspending solution) 32 % of control and 34 % of control; (dose: 35.0 mg/kg/injection, schedule: Q01DX011 (sc), vehicle: steriod suspending solution) 24 % of control; (dose: 40.0 mg/kg/injection, schedule: Q01DX011 (sc), vehicle: steriod suspending solution) 11 % of control; (dose: 70.0 mg/kg/injection, schedule: Q01DX011 (sc), vehicle: steriod suspending solution) 8 % of control; (dose: 80.0 mg/kg/injection, schedule: Q01DX011 (sc), vehicle: steriod suspending solution) 13 % of control; (dose: 140.0 mg/kg/injection, schedule: Q01DX011 (sc), vehicle: steriod suspending solution) 1 % of control.

With `COC(=O)c1cc(=O)[nH]c(N)n1`, the T/C is, setting by setting: under setting [3], 101 % of control; under setting [4], 150 % of control; under setting [1], 97 % of control; under setting [2], 81 % of control; under setting [5], 113 % of control.

In the case of `CC(=O)Nc1c(Cl)c(Cl)c2c(c1Cl)Cc1cc(Cl)ccc1-2`, the T/C was 87 % of control (dose: 27.0 mg/kg/injection, schedule: Q01DX011 (ip), vehicle: acetone); 31 % of control (dose: 55.0 mg/kg/injection, schedule: Q01DX011 (ip), vehicle: acetone); 46 % of control (dose: 110.0 mg/kg/injection, schedule: Q01DX011 (ip), vehicle: other); 31 % of control (dose: 110.0 mg/kg/injection, schedule: Q01DX011 (ip), vehicle: saline); 32 % of control (dose: 225.0 mg/kg/injection, schedule: Q01DX011 (ip), vehicle: other); 8 % of control (dose: 225.0 mg/kg/injection, schedule: Q01DX011 (ip), vehicle: saline). Besides, the T/C (dose: 450.0 mg/kg/injection, schedule: Q01DX011 (ip), vehicle: other) is 19 % of control.
